Laboratory results reported in patent US20130324522A1, “INSECT ODORANT RECEPTOR ANTAGONISTS” (THE ROCKEFELLER UNIVERSITY, priority 2010, published 2013).
Like-named read-outs stand apart in the source and are kept apart here.

Assays:
[1] = molecular target: T1, serotonin receptor (5HT3) (Mus musculus, UniProt P23979); assay: Ca2+-imaging of stable Flip-In T-Rex cell line 5HT3; format: cell-based; details: for inhibition at 4 µM: read-out: Percent Inhibition 5HT3
T1 construct: Full-length cDNAs for mosquito (Anopheles gambiae) odorant receptor; expressed in transfected cells
T1 sequence (P23979 24-489): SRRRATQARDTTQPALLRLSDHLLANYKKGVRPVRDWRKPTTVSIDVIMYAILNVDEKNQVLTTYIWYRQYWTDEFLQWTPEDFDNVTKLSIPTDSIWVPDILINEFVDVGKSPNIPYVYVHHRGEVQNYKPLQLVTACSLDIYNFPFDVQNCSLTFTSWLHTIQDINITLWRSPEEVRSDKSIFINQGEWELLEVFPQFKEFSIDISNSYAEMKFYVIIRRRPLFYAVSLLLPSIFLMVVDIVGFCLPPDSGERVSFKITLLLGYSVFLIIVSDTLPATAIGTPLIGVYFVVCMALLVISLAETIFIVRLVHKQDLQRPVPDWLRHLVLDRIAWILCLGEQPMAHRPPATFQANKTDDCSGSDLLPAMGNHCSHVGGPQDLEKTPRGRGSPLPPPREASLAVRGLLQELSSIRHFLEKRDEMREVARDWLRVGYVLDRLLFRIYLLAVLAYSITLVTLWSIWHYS
Method: (§1) Full-length cDNAs for mosquito (Anopheles gambiae) odorant receptor (OR1, OR2, OR7, OR8, OR28), and fly (Drosophila melanogaster) odorant receptor (Or47a, Or83b), mouse TRP channel (TRPM8), and mouse serotonin receptor (5HT3) were obtained and subcloned into mammalian expression vectors. The following mammalian expression vectors were used:
(§2) Stable cell lines Or47a/Or83b and 5HT3 were generated from Flip-In T-Rex cells. Flip-In T-Rex-based cell lines were cultured in DMEM supplemented with these additional antibiotics: 6 μg/mL blasticidin and 100 μg/mL hygromycin.
(§3) Cells were trypsinized and split into 35 mm dishes 1 day before transfection. Confluent cells (60-70%) in 35 mm dishes were co-transfected with 1 μg of Or47a/Or83b plasmid in pcDNA5/FRT/TO/IRES plus the pOG44 plasmid or 1 μg of 5HT3 plasmid in pcDNA5/FRT/TO plus the pOG44 plasmid using lipofectamine 2000. Co-transfection of pOG44 and pcDNA5/FRT/TO/IRES or pcDNA5/FRT/TO allows expression of Flp recombinase and integration of the pcDNA5 plasmid into the genome via the FRT site. After one day of incubation, the transfected cells were transferred into 10 cm dishes with DMEM containing antibiotics: 20 μg/mL of hygromycin and 6 μg/mL of blasticidin. The concentration of Hygromycin was increased to 100 μg/mL when the population of cells became 30-40% confluent. The cells were cultured by changing medium every two days until cell clumps appeared. The clumps were picked and transferred into 96 well plates with DMEM containing 100 μg/mL of Hygromycin and 6 μg/mL of blasticidin. The cells were grown and transferred to 24 well plates, and ligand-evoked calcium increases were tested using the Hamamatsu FDSS6000 real time fluorescence plate reader.
(§4) Stable cell lines were cultured in 10 cm dishes, and confluent cells (70-80%) were trypsinized. 10,000 cells/20 μL were transferred into each well of 384-well plates coated with poly-D-lysine, and cultured for 2 days. For Flip-In T-Rex cells (cell lines expressing Or47a/Or83b and 5HT3), 5 μL of tetracycline (5 μg/mL) were added 1 day before the assay. 20 μL of Ca-4 dye was loaded into each well for 1.5 hr at room temperature in the dark, and the dye-loaded plates were subjected to Ca^2+-imaging using a Hamamatsu FDSS6000 real time fluorescence plate reader. Odorant solutions (9× final concentration) were prepared by dissolving 1M stock solutions into Hank's Buffered Salt Solution (HBSS), and 30 μL of odor solution was transferred to each well in 384-well plates.
(§5) Compounds ([…] in DMSO) were stored in 384-well plates, and last two columns (32 wells total) contained only DMSO. 200 nL of small compounds were transferred into the odorant plates before the assay using the Perkin-Elmer Janus workstation. The odorant plates were spun down to remove air bubbles, and placed on the FDSS6000 plate loader, and 5 μL of odorant solution was applied to the cell plate on the FDSS6000. Ca^2+ increase was monitored with fluorescence at 525 nm by excitation at 485 nm.

[2] = molecular target: T2, Or47a/Or83b (Drosophila melanogaster, UniProt P81921+Q9VNB5); assay: Ca2+-imaging of stable Flip-In T-Rex cell line Or47a/Or83b; format: cell-based; details: for inhibition at 4 µM: read-out: Percent Inhibition OR47a OR83b
T2 construct: Full-length cDNAs for mosquito (Anopheles gambiae) odorant receptor (OR1, OR2, OR7, OR8, OR28), and fly (Drosophila melanogaster) odorant receptor (Or47a, Or83b); expressed in transfected cells
T2 sequence (P81921 1-385): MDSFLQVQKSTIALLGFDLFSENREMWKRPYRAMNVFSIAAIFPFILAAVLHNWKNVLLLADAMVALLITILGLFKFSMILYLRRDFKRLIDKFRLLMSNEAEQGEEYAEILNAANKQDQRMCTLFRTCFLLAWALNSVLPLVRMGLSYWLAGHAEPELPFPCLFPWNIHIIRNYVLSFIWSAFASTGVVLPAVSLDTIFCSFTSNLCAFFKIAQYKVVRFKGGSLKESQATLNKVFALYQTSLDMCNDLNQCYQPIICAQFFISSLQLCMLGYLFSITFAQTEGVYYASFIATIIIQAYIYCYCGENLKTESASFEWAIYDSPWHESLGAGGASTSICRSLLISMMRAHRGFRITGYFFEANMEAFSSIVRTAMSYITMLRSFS
T2 sequence (Q9VNB5 1-486): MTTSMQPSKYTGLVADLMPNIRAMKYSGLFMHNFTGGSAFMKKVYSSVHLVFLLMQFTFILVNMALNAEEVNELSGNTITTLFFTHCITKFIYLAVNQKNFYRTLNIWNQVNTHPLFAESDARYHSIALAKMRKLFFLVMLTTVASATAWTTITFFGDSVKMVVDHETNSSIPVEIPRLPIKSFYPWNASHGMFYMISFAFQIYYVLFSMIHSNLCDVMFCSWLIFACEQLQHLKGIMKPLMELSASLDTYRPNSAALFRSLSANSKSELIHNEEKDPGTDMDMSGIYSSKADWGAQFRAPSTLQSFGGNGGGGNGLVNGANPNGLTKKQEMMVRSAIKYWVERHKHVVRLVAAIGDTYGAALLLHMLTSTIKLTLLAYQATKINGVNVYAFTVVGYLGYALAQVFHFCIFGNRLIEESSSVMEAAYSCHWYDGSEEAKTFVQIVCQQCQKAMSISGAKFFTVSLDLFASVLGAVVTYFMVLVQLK
Method: as §1, §2, §3, §4, §5

[3] = ligand serotonin 10 μM, read-out: IC50 5HT3
[4] = ligand pentyl acetate 30 μM, read-out: IC50 OR47a OR83b

SMILES	inhibition at 4 µM ([1]; compound applied at 4 μM) [%]	inhibition at 4 µM ([2]; compound applied at 4 μM) [%]	further results
CCN(CC)C(=O)Oc1ccc2c(ccn2Cc2cccc(C)c2)c1NC(=O)CCCCC(=O)OC [RU-0075445]			inhibition at 4 µM [1]: < 25%; inhibition at 4 µM [2]: < 25%
O=C(c1ccco1)N(Cc1nccn1Cc1c(F)cccc1Cl)C1CC1 [RU-0048046]	< 25	26 to 50	
C=CCN(Cc1nccn1Cc1ccccc1C)C(=O)CC(C)C [RU-0058298]	26 to 50	51 to 74	IC50 ([2]; Table B, read-out: IC50 OR47a): > 1 µM
Cc1nc(NC(C)C)nc(NC(C)C)n1 [RU-T6]			IC50 [1]: > 20 µM; IC50 [2]: > 20 µM
Cc1nn(-c2ccc(Cl)cc2)c(C)c1C(=O)NCc1ccccn1 [RU-0048608]	< 25	26 to 50	
O=C(c1cccc(F)c1)N(Cc1c(-c2ccccc2)noc1N1CCCC1)CC1CCCO1 (stereo not shown) [RU-0037434]	26 to 50	51 to 74	IC50 ([2]; Table B, read-out: IC50 OR47a): > 1 µM
Cc1ccccc1C(=O)N[C@@H]1CCCCC1NC(=O)C1CCN(C(=O)c2ccc(C(C)(C)C)cc2)CC1 (stereo partly shown) [RU-0045678]	26 to 50	26 to 50	
CC(C)Nc1nc(Cl)nc(NC(C)C)n1 [RU-T1]			IC50 [1, 3]: > 20 µM; IC50 [2, 4]: > 20 µM
Cc1ccccc1C(=O)N[C@@H]1CCCCC1NC(=O)C1CCN(C(=O)c2cc(C(F)(F)F)cc(C(F)(F)F)c2)CC1 (stereo partly shown) [RU-0045778]	26 to 50	26 to 50	
Fc1cccc(Cl)c1Cn1ccnc1CN(CC1CCCC1)C1CC1 [RU-I4]			IC50 [1, 3]: > 20 µM; IC50 [2, 4]: > 20 µM
COCCCN(Cc1c(-c2ccccc2)noc1N1CCCC1)C(=O)c1ccc(F)cc1 [RU-0037386]	26 to 50	51 to 74	IC50 ([2]; Table B, read-out: IC50 OR47a): > 1 µM
Cc1ccccc1C(=O)N[C@@H]1CCCCC1NC(=O)C1CCCN(S(=O)(=O)c2cc(Cl)ccc2Cl)C1 (stereo partly shown) [RU-0045691]	< 25	26 to 50	
CCN(CC)C(=O)c1cccc(C)c1 [DEET, N,N-diethyl-m-toluamide, reference compound]			IC50 [1, 3]: > 50 µM; IC50 [2, 4]: > 50 µM
CCOC(=O)c1c(NC(C)=O)c(-c2ccc(OC)cc2)cn1Cc1ccccc1 [RU-0077733]	< 25	26 to 50	
CCN(CC)c1onc(-c2ccccc2)c1CN(CC1CCCO1)C(=O)c1ccc2c(c1)OCO2 (stereo not shown) [RU-0036875]	51 to 74	51 to 74	IC50 ([1]; Table B, read-out: IC50 5HT3): > 1 µM; IC50 ([2]; Table B, read-out: IC50 OR47a): > 1 µM
O=C(Cc1cccc(F)c1)N1CCOC(COCc2c(Cl)cccc2Cl)C1 (stereo not shown) [RU-0050398]	< 25	26 to 50	
O=C(CCC1CCN(C(=O)c2cccc(-n3cccn3)c2)CC1)Nc1ccccc1 [RU-0032465]	< 25	51 to 74	IC50 ([2]; Table B, read-out: IC50 OR47a): > 1 µM
O=C(c1ccco1)N(Cc1ccco1)Cc1nccn1Cc1ccccc1F [RU-0047694]	26 to 50	26 to 50	

SMILES	inhibition at 4 µM ([1]; compound applied at 4 μM) [%]	inhibition at 4 µM ([2]; compound applied at 4 μM) [%]	further results
Cc1cccc(Cn2ccnc2CN(C(=O)c2ccccc2F)C2CCCCC2)c1 [RU-0047851]	< 25	26 to 50	
CC(C)Nc1nc(Cl)nc(N(C)C(C)C)n1 [RU-T7]			IC50 [1]: > 20 µM; IC50 [2]: > 20 µM
COCCCN(Cc1c(-c2ccccc2)noc1N(C)C(C)C)C(=O)c1ccccc1OC [RU-0037003]	26 to 50	< 25	
COc1ccc(-n2c(Cc3ccccc3)nnc2SCCCC(=O)N2CCN(C(=O)c3ccc(C(F)(F)F)cc3)C(C)C2)cc1 (stereo not shown) [RU-0071828]	26 to 50	26 to 50	
C=CCOc1cccc(C(=O)N2CCCC(C(=O)c3ccccc3OC)C2)c1 (stereo not shown) [RU-0029409]	< 25	51 to 74	
CCCCCCCC(=O)N1CCCC(C(=O)NC2CCCC[C@H]2NC(=O)c2ccccc2C)C1 (stereo partly shown) [RU-0045756]	< 25	26 to 50	
CC(C)Nc1nc(NC(C)C)nc(C(F)(F)F)n1 [RU-T8]			IC50 [1]: > 20 µM; IC50 [2]: > 20 µM
C=CCN(Cc1nccn1Cc1ccccc1F)C(=O)C1CCCC1 [RU-0058964]	51 to 74	51 to 74	IC50 ([1]; Table B, read-out: IC50 5HT3): > 1 µM; IC50 ([2]; Table B, read-out: IC50 OR47a): > 1 µM
Cc1ccc(-c2nnc(SCCCC(=O)N3CCN(C(=O)c4cccc(F)c4)C(C)C3)n2-c2ccc(C)cc2)cc1 (stereo not shown) [RU-0071789]	26 to 50	26 to 50	
COc1ccccc1CC(=O)N1CCOC(COc2ccc(C)cc2)C1 (stereo not shown) [RU-0050390]	< 25	26 to 50	
CCN(CC)c1onc(-c2ccccc2)c1CN(CC1CCCO1)C(=O)c1ccco1 (stereo not shown) [RU-0036855]	< 25	26 to 50	
Cc1cccc(NC(=O)CCC2CCN(C(=O)CCOc3ccccc3)CC2)c1 [RU-0030324]	26 to 50	51 to 74	IC50 ([2]; Table B, read-out: IC50 OR47a): < 0.1 µM
CCNc1nc(Cl)nc(NC(C)C)n1 [RU-T5]			IC50 [1, 3]: > 20 µM; IC50 [2, 4]: > 20 µM
O=C(C1CCCC1)N(Cc1nccn1CCc1c(F)cccc1Cl)C1CC1 [RU-I2]			IC50 [1, 3]: 2 to 20 µM; IC50 [2, 4]: < 2 µM
c1ccc(CNc2nc(NCc3ccco3)nc(N3CCOCC3)n2)cc1 [RU-0020050]	26 to 50	51 to 74	IC50 ([2]; Table B, read-out: IC50 OR47a): < 0.1 µM
O=C(C1CCC1)N(Cc1ccco1)Cc1nccn1Cc1ccccc1Cl [RU-0048066]	< 25	26 to 50	
COCCNC(=O)c1ccc(CSc2nnc(-c3ccc(C)cc3)n2-c2ccccc2C)cc1 [RU-0053556]	< 25	26 to 50	
O=C(NCCC(=O)N1CCOC(COCc2ccc(F)cc2Cl)C1)OCc1ccccc1 (stereo not shown) [RU-0050344]	< 25	26 to 50	
